In US7566805B2, “Modafinil compositions” (priority 2003, dated 2009):
Like-named read-outs stand apart in the source and are kept apart here.

How the values were obtained:
[1] = Solid-state stability of modafinil:malonic acid co-crystal at various temperatures and relative humidities; assay type: physicochemical; settings: for degradation / degradation per day: four week period
Method: At 60 degrees C., about 0.14 percent degradation per day was determined based on a simple exponential model. At 80 degrees C., about 8 percent degradation per day was determined.
FIGS. 49 and 50 show the % area impurities as measured via HPLC versus time (weeks) for samples stored at various conditions including: 25 degrees C., 60% RH; 40 degrees C., 75 percent RH; 40 degrees C., ambient RH; 60 degrees C., ambient RH; 80 degrees C., ambient RH; and −20 degrees C.

[2] = Dynamic vapor sorption isotherm; assay type: physicochemical; settings: up to at least 40 percent RH at 26 degrees C.
[3] = Racemic modafinil:malonic acid co-crystal pharmacokinetic study in dogs (vs micronized pure modafinil); assay type: in vivo
Method: As a reference, micronized modafinil with a median particle size of about 2 micrometers was also administered in the study.

[4] = In vitro dissolution in simulated gastric fluid (SGF) and simulated intestinal fluid (SIF); settings: micronized, blended with lactose, HPMC capsules
From the text: Further aqueous solubility can be measured in simulated gastric fluid (SGF) or simulated intestinal fluid (SIF) rather than water.
Both samples were blended with lactose and filled into HPMC capsules.

[5] = Pharmacokinetic study with dogs: modafinil:malonic acid formulated with lactose vs PROVIGIL tablets; assay type: in vivo
From the text: In Table VI, “Cmax” is the maximum blood plasma concentration, “AUC (inf)” is the extrapolated area under the curve, “t1/2” is the amount of time for the blood plasma level to decrease to half of the Cmax level beginning at administration, “Tmax” is the time to maximum blood plasma concentration from administration, “CL” is the clearance rate of modafinil, and “F %” is the percent bioavailability.

[6] = cited from earlier work
[7] = Dog pharmacokinetic study of a single intravenous dose of R-(−)-modafinil vs racemic modafinil; assay type: in vivo; settings: dogs; for AUC(0-inf) / Cmax / Vd / clearance / half-life: dog, plasma, 5 mg/kg IV, Mean
From the text: A dog pharmacokinetic study (N=6) of a single intravenous dose of R-(−)-modafinil was completed. The purity of the R-(−)-modafinil in the administered formulation was ca 80 percent. This formulation was compared to a formulation of racemic modafinil, also administered by the intravenous route to the same dogs in a crossover design. Ir. Table VII, “Cmax” is the maximum blood plasma concentration, “AUC (inf)” is the extrapolated area under the curve, “t1/2” is the amount of time for the blood plasma level to decrease to half of the Cmax level beginning at administration, “Vd” is the volume of distribution, and “CL” is the clearance rate of modafinil.

[8] = cited from earlier work; remark: listed apart in the source
[9] = dogs, 30 mg/kg oral dose, plasma 2 to 9 hours post-dose, cited from earlier work; for Mean AUC (sulfone): sulfone metabolite
[10] = second value listed in the cell

Compound | pKa Values ([6]; first value listed in the cell) | pKa Values [6, 10] | further results
Racemic Modafinil:Malonic Acid Co-crystal [Modafinil: malonic acid co-crystal] | – | – | degradation ([1]; 20 degrees C.): No degradation; degradation ([1]; 40 degrees C.): No degradation; degradation per day ([1]; 60 degrees C., simple exponential model): about 0.14 percent degradation per day; degradation per day ([1]; 80 degrees C.): about 8 percent degradation per day; stability on storage (% area impurities via HPLC) ([1]; stored at or below 40 degrees C. for at least 26 weeks): stable; water adsorption (DVS) [2]: no appreciable water adsorption; AUC higher than that of the pure modafinil [3]: 40 to 60%; Tmax [3]: 1.7 ± 0.6 h; release of modafinil into solution vs free form of modafinil ([4]; SGF): more quickly; release of modafinil into solution vs free form of modafinil ([4]; SIF): more quickly; CL ([5]; 200 mg modafinil, Mean): 368.33; Tmax ([5]; 200 mg modafinil, Mean): 2 h; AUC (inf) ([5]; 200 mg modafinil, Mean, extrapolated, in ng·h/mL): 50545.00; Cmax ([5]; 200 mg modafinil, Mean, in ng/mL): 11246.67; F % ([5]; 200 mg modafinil, Mean, percent bioavailability): 81.57%; Cmax compared with PROVIGIL tablets ([5]; FIG. 56): increased
OC[C@@H](O)[C@H](O)[C@@H](O)CO [Xylitol] | ~9 | – | –
CN(C)CC(=O)O [Dimethylglycine] | 2.5 | – | –
NC(=O)C[S+]([O-])C(c1ccccc1)c1ccccc1 (racemic) [Racemic Modafinil, (±)-2-[(Diphenylmethyl)sulfinyl]acetamide] | – | – | AUC(0-inf) [7]: 15100 ng·h/mL; Cmax [7]: 8680 ng/mL; Vd [7]: 0.589 L/kg; clearance [7]: 5.68 mL/min/kg; half-life [7]: 63 min; half-life ([3]; dog, in vivo): 126 ± 42 min; Cmax ([3]; dog, in vivo, median particle size 2 micrometers (pure modafinil), 16 micrometers (co-crystal)): 11000 ± 5900 ng/mL; Tmax ([3]; dog, in vivo, read-out: Tmax): 1.3 ± 0.6 h; solubility in water [8]: practically insoluble; Mean AUC (racemate) [9]: 46.76 ± 6.95 mg·h/L; Mean AUC (sulfone) [9]: 35.12 ± 6.93 mg·h/L
N[C@@H](CS)C(=O)O [Cysteine] | 1.71 | 8.33 | pKa Values ([6]; third value listed in the cell): 10.78
C[C@@H](O)[C@H](N)C(=O)O [Threonine] | 2.15 | 9.12 | –
Imidazole | 6.92 | – | –
NC(=O)C[C@H](N)C(=O)O [Asparagine] | 2.02 | 8.5 | –
N[C@@H](Cc1c[nH]c2ccccc12)C(=O)O [Tryptophan] | – | 9.39 | –
CC1(C(=O)O)CCC(C(=O)O)C1(C)C (stereo not drawn) [Camphoric acid] | – | 5.83 | –
CCCCCCCCCCCC(=O)O [Lauric acid] | ~4.5 | – | –
O=C(O)[C@H](O)[C@@H](O)[C@H](O[C@@H]1O[C@H](CO)[C@H](O)[C@H](O)[C@H]1O)[C@H](O)CO [Lactobionic acid] | 3.2 | – | –
NC1[C@H](O)OC(CO)[C@@H](O)[C@H]1O (stereo partly drawn) [Glucosamine] | 6.91 | – | –
Cc1ncc(CO)c(CN)c1O [Pyridoxamine] | ~9 | – | –
NC(=O)C[S@+]([O-])C(c1ccccc1)c1ccccc1 [Example 40-983, S-(+)-2-[(Diphenylmethyl)sulfinyl]acetamide] | – | – | Mean AUC (racemate) [9]: 50.94 ± 8.77 mg·h/L; Mean AUC (sulfone) [9]: 83.12 ± 21.66 mg·h/L
N[C@@H](Cc1ccccc1)C(=O)O [Phenylalanine] | ~2 | ~9 | –
O=C(O)[C@@H](O)[C@H](O)[C@H](O)[C@@H](O)C(=O)O [Galactaric acid] | – | 3.63 | –
NC(=O)c1cccnc1 [Nicotinamide] | 3.3 | – | –

Compound | pKa Values ([6]; first value listed in the cell) | pKa Values [6, 10] | further results
Acetohydroxamic acid | 8.7 | – | –
CC(C)[C@H](N)C(=O)O [Valine] | ~4.5 | ~9 | –
Cc1cc(N)c2ccccc2c1O [Vitamin K5] | ~9 | – | melting point: 280 to 282 °C (dec.)
Cc1ncc(CO)c(CO)c1O [Pyridoxine] | ~9 | – | –
O=C(O)CCCC(=O)O [Glutaric acid] | 2.7 | 4.5 | –
Nc1ccc(C(=O)O)c(O)c1 [Salicylic acid, 4-amino] | 3.25 | 10 | pKa Values ([6]; third value listed in the cell): 3.5
Nc1ccncc1 [4-aminopyridine] | 10 | – | –
Oc1ncnc2[nH]ncc12 [Allopurinaol] | 10.2 | – | –
N=C(N)NCCC[C@H](N)C(=O)O [Arginine] | 2.18 | 9.09 | –
CC[C@H](C)[C@H](N)C(=O)O [Isoleucine] | 2.32 | 9.76 | –
CCOc1ccc(NC(N)=O)cc1 [4-ethoxyphenyl urea] | ~7-9 | – | –
NC(=O)C[S@@+]([O-])C(c1ccccc1)c1ccccc1 [R-(−)-modafinil, R-(−)-2-[(Diphenylmethyl)sulfinyl]acetamide] | – | – | AUC(0-inf) [7]: 15900 ng·h/mL; Cmax [7]: 7810 ng/mL; Vd [7]: 0.647 L/kg; clearance [7]: 5.67 mL/min/kg; half-life [7]: 91.8 min; difference in pharmacokinetics vs racemic modafinil ([7]; intravenous administration): no significant difference; Mean AUC (racemate) [9]: 97.22 ± 12.58 mg·h/L; Mean AUC (sulfone) [9]: 8.69 ± 1.22 mg·h/L
Nc1ncnc2nc[nH]c12 [Adenine] | 3.8 | – | –
Urea | ~8 | – | –
Nc1ccc(C(=O)O)cc1 [4-aminobenzoic acid] | 4.7 | – | –
O=C(O)c1cc(=O)[nH]c(=O)[nH]1 [Orotic acid] | 5.85 | 8.95 | –
CCCCCCCCCCCCCCCC(=O)O [Palmitic acid] | 4.9 | – | –
